Experimental data as given in patent US20150105252A1, “SUBSTITUTED PYRAZOLES AS HERBICIDES” (E I DU PONT DE NEMOURS AND COMPANY, priority 2013, published 2015).

Assays:
Test in all cases: Test C postemergence
johnsongrass = assay type: in vivo, Sorghum halepense; conditions: for Plant response rating (scale of 0 to 100 where 0 is no effect and 100 is complete control), Johnsongrass: Postemergence, 31 g ai/ha, visually evaluated after 13 to 15 days; for Johnsongrass plant response rating / Plant response rating, Johnsongrass: postemergence; for Johnsongrass plant response rating: 62 g ai/ha, scale 0 to 100
In short: (§1)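 Seeds sown in loam–sand blend and treated preemergence with test chemicals in non-phytotoxic solvent with surfactant; postemergence plants in peat-based medium, treated at 2–18 cm (1- to 4-leaf stage). Greenhouse 13 to 15 days, then visual rating versus controls, 0 (no effect) to 100 (complete control).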

soybean = assay type: in vivo, Glycine max; conditions: for Plant response rating, Soybean / Soybean plant response rating: postemergence; for Plant response rating, Soybean: 250 g ai/ha, scale 0 to 100 (0 no effect, 100 complete control); for Soybean plant response rating: 125 g ai/ha, scale 0 to 100, 0 no effect, 100 complete control
In short: as §1

kochia = assay type: in vivo, Kochia scoparia; conditions: for Plant response rating (scale of 0 to 100 where 0 is no effect and 100 is complete control), Kochia: Postemergence, 31 g ai/ha, visually evaluated after 13 to 15 days; for Kochia plant response rating / Plant response rating, Kochia: postemergence; for Kochia plant response rating: 62 g ai/ha, scale 0 to 100
In short: as §1

corn = assay type: in vivo, Zea mays; conditions: for Plant response rating (scale of 0 to 100 where 0 is no effect and 100 is complete control), Corn: Postemergence, 31 g ai/ha, visually evaluated after 13 to 15 days; for Corn plant response rating / Plant response rating, Corn: postemergence; for Corn plant response rating: 62 g ai/ha, scale 0 to 100
In short: as §1

blackgrass = assay type: in vivo, Alopecurus myosuroides; conditions: for Plant response rating (scale of 0 to 100 where 0 is no effect and 100 is complete control), Blackgrass: Postemergence, 31 g ai/ha, visually evaluated after 13 to 15 days; for Blackgrass plant response rating / Plant response rating, Blackgrass: postemergence; for Blackgrass plant response rating: 62 g ai/ha, scale 0 to 100
In short: as §1

wheat = assay type: in vivo, Triticum aestivum; conditions: for Plant response rating, Wheat / Wheat plant response rating: postemergence; for Plant response rating, Wheat: 250 g ai/ha, scale 0 to 100 (0 no effect, 100 complete control); for Wheat plant response rating: scale 0 to 100
In short: as §1

velvetleaf = assay type: in vivo, Abutilon theophrasti; conditions: for Plant response rating, Velvetleaf / Velvetleaf plant response rating: postemergence; for Plant response rating, Velvetleaf: 250 g ai/ha, scale 0 to 100 (0 no effect, 100 complete control); for Velvetleaf plant response rating: scale 0 to 100
In short: as §1

chickweed = assay type: in vivo, Stellaria media; conditions: for Plant response rating (scale of 0 to 100 where 0 is no effect and 100 is complete control), Chickweed: Postemergence, 31 g ai/ha, visually evaluated after 13 to 15 days; for Chickweed plant response rating / Plant response rating, Chickweed: postemergence; for Chickweed plant response rating: 62 g ai/ha, scale 0 to 100
In short: as §1

pigweed = assay type: in vivo, Amaranthus retroflexus; conditions: for Pigweed plant response rating / Plant response rating, Pigweed: postemergence; for Pigweed plant response rating: 62 g ai/ha, scale 0 to 100
In short: as §1

foxtail, giant = assay type: in vivo, Setaria faberii; conditions: for Plant response rating (scale of 0 to 100 where 0 is no effect and 100 is complete control), Foxtail, Giant: Postemergence, 31 g ai/ha, visually evaluated after 13 to 15 days; for Foxtail, Giant plant response rating / Plant response rating, Foxtail, Giant: postemergence; for Foxtail, Giant plant response rating: 62 g ai/ha, scale 0 to 100
In short: as §1

galium = assay type: in vivo, Galium aparine; conditions: for Plant response rating (scale of 0 to 100 where 0 is no effect and 100 is complete control), Galium: Postemergence, 31 g ai/ha, visually evaluated after 13 to 15 days; for Galium plant response rating / Plant response rating, Galium: postemergence; for Galium plant response rating: 62 g ai/ha, scale 0 to 100
In short: as §1

lambsquarters = assay type: in vivo, Chenopodium album; conditions: for Plant response rating (scale of 0 to 100 where 0 is no effect and 100 is complete control), Lambsquarters: Postemergence, 31 g ai/ha, visually evaluated after 13 to 15 days; for Lambsquarters plant response rating / Plant response rating, Lambsquarters: postemergence; for Lambsquarters plant response rating: 62 g ai/ha, scale 0 to 100
In short: as §1

oat, wild = assay type: in vivo, Avena fatua; conditions: for Plant response rating (scale of 0 to 100 where 0 is no effect and 100 is complete control), Oat, Wild: Postemergence, 31 g ai/ha, visually evaluated after 13 to 15 days; for Oat, Wild plant response rating / Plant response rating, Oat, Wild: postemergence; for Oat, Wild plant response rating: 62 g ai/ha, scale 0 to 100
In short: as §1

ragweed = assay type: in vivo, Ambrosia elation; conditions: for Plant response rating, Ragweed: postemergence
In short: as §1

ryegrass, Italian = assay type: in vivo, Lolium multiflorum; conditions: for Plant response rating, Ryegrass, Italian: postemergence
In short: as §1

barnyardgrass = assay type: in vivo, Echinochloa crus-galli; conditions: for Plant response rating (scale of 0 to 100 where 0 is no effect and 100 is complete control), Barnyardgrass: Postemergence, 31 g ai/ha, visually evaluated after 13 to 15 days; for Barnyardgrass plant response rating / Plant response rating, Barnyardgrass: postemergence; for Barnyardgrass plant response rating: 62 g ai/ha, scale 0 to 100
In short: as §1

crabgrass, large = assay type: in vivo, Digitaria sanguinalis; conditions: for Plant response rating (scale of 0 to 100 where 0 is no effect and 100 is complete control), Crabgrass, Large: Postemergence, 31 g ai/ha, visually evaluated after 13 to 15 days; for Crabgrass, Large plant response rating / Plant response rating, Crabgrass, Large: postemergence; for Crabgrass, Large plant response rating: 62 g ai/ha, scale 0 to 100
In short: as §1

[1] = 250 g ai/ha, scale 0 to 100 (0 no effect, 100 complete control)
[2] = 125 g ai/ha, scale 0 to 100, 0 no effect, 100 complete control
[3] = Postemergence, 31 g ai/ha, visually evaluated after 13 to 15 days

## CCc1cc(C(=O)NC(C)C)nn1Cc1ccnc(C(F)(F)F)c1 [Compound 139]
johnsongrass
  Plant response rating (scale of 0 to 100 where 0 is no effect and 100 is complete control), Johnsongrass: 5
  Johnsongrass plant response rating: 5
johnsongrass; [1]
  Plant response rating, Johnsongrass: 20
johnsongrass; [2]
  Plant response rating, Johnsongrass: 10
soybean; [3]
  Plant response rating (scale of 0 to 100 where 0 is no effect and 100 is complete control), Soybean: 15
soybean
  Plant response rating, Soybean: 85
  Soybean plant response rating: 55
kochia
  Plant response rating (scale of 0 to 100 where 0 is no effect and 100 is complete control), Kochia: 60
  Kochia plant response rating: 75
kochia; [1]
  Plant response rating, Kochia: 85
kochia; [2]
  Plant response rating, Kochia: 85
corn
  Plant response rating (scale of 0 to 100 where 0 is no effect and 100 is complete control), Corn: 5
  Corn plant response rating: 10
corn; [1]
  Plant response rating, Corn: 20
corn; [2]
  Plant response rating, Corn: 15
blackgrass
  Plant response rating (scale of 0 to 100 where 0 is no effect and 100 is complete control), Blackgrass: 20
  Blackgrass plant response rating: 20
blackgrass; [1]
  Plant response rating, Blackgrass: 35
blackgrass; [2]
  Plant response rating, Blackgrass: 20
wheat; [3]
  Plant response rating (scale of 0 to 100 where 0 is no effect and 100 is complete control), Wheat: 5
wheat
  Plant response rating, Wheat: 25
  Wheat plant response rating: 5
velvetleaf; [3]
  Plant response rating (scale of 0 to 100 where 0 is no effect and 100 is complete control), Velvetleaf: 10
velvetleaf
  Plant response rating, Velvetleaf: 25
  Velvetleaf plant response rating: 15
chickweed
  Plant response rating (scale of 0 to 100 where 0 is no effect and 100 is complete control), Chickweed: 60
  Chickweed plant response rating: 60
chickweed; [1]
  Plant response rating, Chickweed: 80
chickweed; [2]
  Plant response rating, Chickweed: 65
pigweed; [3]
  Plant response rating (scale of 0 to 100 where 0 is no effect and 100 is complete control), Pigweed: 30
pigweed
  Pigweed plant response rating: 40
pigweed; [1]
  Plant response rating, Pigweed: 60
pigweed; [2]
  Plant response rating, Pigweed: 40
foxtail, giant
  Plant response rating (scale of 0 to 100 where 0 is no effect and 100 is complete control), Foxtail, Giant: 5
  Foxtail, Giant plant response rating: 5
foxtail, giant; [1]
  Plant response rating, Foxtail, Giant: 65
foxtail, giant; [2]
  Plant response rating, Foxtail, Giant: 10
galium
  Plant response rating (scale of 0 to 100 where 0 is no effect and 100 is complete control), Galium: 50
  Galium plant response rating: 60
galium; [1]
  Plant response rating, Galium: 70
galium; [2]
  Plant response rating, Galium: 60
lambsquarters
  Plant response rating (scale of 0 to 100 where 0 is no effect and 100 is complete control), Lambsquarters: 40
  Lambsquarters plant response rating: 55
lambsquarters; [1]
  Plant response rating, Lambsquarters: 85
lambsquarters; [2]
  Plant response rating, Lambsquarters: 70
oat, wild
  Plant response rating (scale of 0 to 100 where 0 is no effect and 100 is complete control), Oat, Wild: 10
  Oat, Wild plant response rating: 10
oat, wild; [1]
  Plant response rating, Oat, Wild: 40
oat, wild; [2]
  Plant response rating, Oat, Wild: 30
ragweed; [3]
  Plant response rating (scale of 0 to 100 where 0 is no effect and 100 is complete control), Ragweed: 35
ragweed; [1]
  Plant response rating, Ragweed: 25
ragweed; [2]
  Plant response rating, Ragweed: 35
ryegrass, Italian; [3]
  Plant response rating (scale of 0 to 100 where 0 is no effect and 100 is complete control), Ryegrass, Italian: 0
ryegrass, Italian; [1]
  Plant response rating, Ryegrass, Italian: 5
ryegrass, Italian; [2]
  Plant response rating, Ryegrass, Italian: 10
barnyardgrass
  Plant response rating (scale of 0 to 100 where 0 is no effect and 100 is complete control), Barnyardgrass: 10
  Barnyardgrass plant response rating: 10
barnyardgrass; [1]
  Plant response rating, Barnyardgrass: 20
barnyardgrass; [2]
  Plant response rating, Barnyardgrass: 10
crabgrass, large
  Plant response rating (scale of 0 to 100 where 0 is no effect and 100 is complete control), Crabgrass, Large: 10
  Crabgrass, Large plant response rating: 10
crabgrass, large; [1]
  Plant response rating, Crabgrass, Large: 20
crabgrass, large; [2]
  Plant response rating, Crabgrass, Large: 15

## CCCc1cc(C(=O)NOCC)nn1Cc1ccnc(C(F)(F)F)c1 [Compound 185]
johnsongrass
  Plant response rating (scale of 0 to 100 where 0 is no effect and 100 is complete control), Johnsongrass: 0
  Johnsongrass plant response rating: 0
johnsongrass; [1]
  Plant response rating, Johnsongrass: 5
johnsongrass; [2]
  Plant response rating, Johnsongrass: 0
soybean
  Plant response rating, Soybean: 50
  Soybean plant response rating: 40
kochia
  Plant response rating (scale of 0 to 100 where 0 is no effect and 100 is complete control), Kochia: 50
  Kochia plant response rating: 60
kochia; [1]
  Plant response rating, Kochia: 80
kochia; [2]
  Plant response rating, Kochia: 75
corn
  Plant response rating (scale of 0 to 100 where 0 is no effect and 100 is complete control), Corn: 5
  Corn plant response rating: 5
corn; [1]
  Plant response rating, Corn: 65
corn; [2]
  Plant response rating, Corn: 5
blackgrass
  Plant response rating (scale of 0 to 100 where 0 is no effect and 100 is complete control), Blackgrass: 0
  Blackgrass plant response rating: 0
blackgrass; [1]
  Plant response rating, Blackgrass: 5
blackgrass; [2]
  Plant response rating, Blackgrass: 5
wheat
  Plant response rating, Wheat: 10
  Wheat plant response rating: 5
velvetleaf
  Plant response rating, Velvetleaf: 35
  Velvetleaf plant response rating: 25
chickweed
  Plant response rating (scale of 0 to 100 where 0 is no effect and 100 is complete control), Chickweed: 70
  Chickweed plant response rating: 80
chickweed; [1]
  Plant response rating, Chickweed: 85
chickweed; [2]
  Plant response rating, Chickweed: 85
pigweed
  Pigweed plant response rating: 50
pigweed; [1]
  Plant response rating, Pigweed: 85
pigweed; [2]
  Plant response rating, Pigweed: 75
foxtail, giant
  Plant response rating (scale of 0 to 100 where 0 is no effect and 100 is complete control), Foxtail, Giant: 5
  Foxtail, Giant plant response rating: 5
foxtail, giant; [1]
  Plant response rating, Foxtail, Giant: 5
foxtail, giant; [2]
  Plant response rating, Foxtail, Giant: 10
galium
  Plant response rating (scale of 0 to 100 where 0 is no effect and 100 is complete control), Galium: 40
  Galium plant response rating: 40
galium; [1]
  Plant response rating, Galium: 70
galium; [2]
  Plant response rating, Galium: 45
lambsquarters
  Plant response rating (scale of 0 to 100 where 0 is no effect and 100 is complete control), Lambsquarters: 70
  Lambsquarters plant response rating: 35
lambsquarters; [1]
  Plant response rating, Lambsquarters: 65
lambsquarters; [2]
  Plant response rating, Lambsquarters: 45
oat, wild
  Plant response rating (scale of 0 to 100 where 0 is no effect and 100 is complete control), Oat, Wild: 5
  Oat, Wild plant response rating: 10
oat, wild; [1]
  Plant response rating, Oat, Wild: 15
oat, wild; [2]
  Plant response rating, Oat, Wild: 10
ragweed; [1]
  Plant response rating, Ragweed: 30
ragweed; [2]
  Plant response rating, Ragweed: 40
ryegrass, Italian; [1]
  Plant response rating, Ryegrass, Italian: 0
ryegrass, Italian; [2]
  Plant response rating, Ryegrass, Italian: 0
barnyardgrass
  Plant response rating (scale of 0 to 100 where 0 is no effect and 100 is complete control), Barnyardgrass: 0
  Barnyardgrass plant response rating: 0
barnyardgrass; [1]
  Plant response rating, Barnyardgrass: 20
barnyardgrass; [2]
  Plant response rating, Barnyardgrass: 5
crabgrass, large
  Plant response rating (scale of 0 to 100 where 0 is no effect and 100 is complete control), Crabgrass, Large: 5
  Crabgrass, Large plant response rating: 5
crabgrass, large; [1]
  Plant response rating, Crabgrass, Large: 45
crabgrass, large; [2]
  Plant response rating, Crabgrass, Large: 5
